Data as given in US11976061B2, “Preparation of benzimidazolone derivatives as novel diacylglyceride O-acyltransferase 2 inhibitors” (Merck Sharp & Dohme LLC, priority 2020, dated 2024).
pIC50: −log10 of the molar value.

Each molecule was assayed against T1, human DGAT2 (hDGAT2) (Homo sapiens, UniProt Q96PD7) (assay: DGAT2 Enzymatic Activity Assay). Conditions: membrane prep of Sf-9 cells expressing hDGAT2; 25 μM diolein, 5 μM 13C oleoyl-CoA; 13C18-triolein by LC/MS/MS; read-out: DGAT2 IC50.
T1 construct: made in house; host or cells: Sf-9 insect cells (baculovirus), membrane fraction
T1 sequence (Q96PD7 1-388): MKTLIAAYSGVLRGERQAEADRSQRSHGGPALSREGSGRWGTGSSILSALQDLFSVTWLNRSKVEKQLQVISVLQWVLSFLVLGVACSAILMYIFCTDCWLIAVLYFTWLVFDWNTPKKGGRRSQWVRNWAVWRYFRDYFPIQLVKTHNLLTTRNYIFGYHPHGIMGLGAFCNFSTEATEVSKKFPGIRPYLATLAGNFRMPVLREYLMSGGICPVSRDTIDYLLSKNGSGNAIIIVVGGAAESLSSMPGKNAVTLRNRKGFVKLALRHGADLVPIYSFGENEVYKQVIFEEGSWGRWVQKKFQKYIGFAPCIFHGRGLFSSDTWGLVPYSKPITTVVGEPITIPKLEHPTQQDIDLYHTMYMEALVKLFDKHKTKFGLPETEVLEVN
Format: biochemical
Method in brief: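 Membranes from Sf-9 cells expressing untagged human DGAT2 (8 ng/μL) incubated at rt in 100 mM Tris·Cl pH 7.0, 20 mM MgCl2, 5% ethanol with 25 μM diolein and 5 μM 13C oleoyl-CoA. 13C18-triolein product quantified by LC/MS/MS against 13C21-triolein internal standard; IC50 by 4-parameter fit.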

Question: `CC(C)n1c(=O)n(-c2cccc(OC(F)F)c2)c2cc(F)c(C(=O)N[C@]3(C)CCS(=O)(=O)C3)cc21` [Example 113, (R)-1-(3-(Difluoromethoxy)phenyl)-6-fluoro-3-isopropyl-N-(3-methyl-1,1-dioxidotetrahydrothiophen-3-1)-2-oxo-2,3-dihydro-1H-benzo[d]imidazole-5-carboxamide] was tested. Which pIC50 did it give?
Answer: 7.11

Question: With `CC(C)n1c(=O)n(-c2cccc(OC(F)F)c2)c2cc(F)c(C(=O)N[C@@]3(C)CCS(=O)(=O)C3)cc21` [Example 114, (S)-1-(3-(Difluoromethoxy)phenyl)-6-fluoro-3-isopropyl-N-(3-methyl-1,1-dioxidotetrahydrothiophen-3-yl)-2-oxo-2,3-dihydro-1H-benzo[d]imidazole-5-carboxamide] as the molecule, how does the pIC50 read?
Answer: 7.10

Question: With `CCOc1cc(-n2c(=O)n(C(C)C)c3cc(C(=O)NC4(C)CS(=O)(=O)C4)c(F)cc32)c(F)cn1` [Example 116, 1-(2-ethoxy-5-fluoropyridin-4-yl)-6-fluoro-3-isopropyl-N-(3-methyl-1,1-dioxidothietan-3-yl)-2-oxo-2,3-dihydro-1H-benzo[d]imidazole-5-carboxamide] as the molecule, how does the pIC50 read?
Answer: 7.03

Question: `CCOc1cc(-n2c(=O)n(C(C)C)c3cc(C(=O)NC4(C(F)F)CCS(=O)(=O)CC4)c(F)cc32)c(F)cn1` [Example 117, N-(4-(difluoromethyl)-1,1-dioxidotetrahydro-2H-thiopyran-4-yl)-1-(2-ethoxy-5-fluoropyridin-4-yl)-6-fluoro-3-isopropyl-2-oxo-2,3-dihydro-1H-benzo[d]imidazole-5-carboxamide] was tested. Which pIC50 did it give?
Answer: 7.57

Question: `CC(C)n1c(=O)n(-c2cc(OC(F)(F)C(F)F)ccn2)c2cc(F)c(C(=O)NC3(C)CCS(=O)(=O)CC3)cc21` [Example 118, 6-fluoro-3-isopropyl-N-(4-methyl-1,1-dioxidotetrahydro-2H-thiopyran-4-yl)-2-oxo-1-(4-(1,1,2,2-tetrafluoroethoxy)pyridin-2-yl)-2,3-dihydro-1H-benzo[d]imidazole-5-carboxamide] was tested. Which pIC50 did it give?
Answer: 8.26

Question: `CC(C)n1c(=O)n(-c2cc(OCC(F)F)ccn2)c2ccc(C(=O)NC3(C)CCS(=O)(=O)CC3)cc21` [Example 119, 1-(4-(2,2-difluoroethoxy)pyridin-2-yl)-3-isopropyl-N-(4-methyl-1,1-dioxidotetrahydro-2H-thiopyran-4-yl)-2-oxo-2,3-dihydro-1H-benzo[d]imidazole-5-carboxamide] was tested. Which pIC50 did it give?
Answer: 7.29

Question: With `CC(C)n1c(=O)n(-c2cc(OC(F)(F)C(F)F)ccn2)c2ccc(C(=O)NC3(C)CCS(=O)(=O)CC3)cc21` [Example 120, 3-isopropyl-N-(4-methyl-1,1-dioxidotetrahydro-2H-thiopyran-4-yl)-2-oxo-1-(4-(1,1,2,2-tetrafluoroethoxy)pyridin-2-yl)-2,3-dihydro-1H-benzo[d]imidazole-5-carboxamide] as the molecule, how does the pIC50 read?
Answer: 8.49

Question: With `CC(C)n1c(=O)n(-c2cc(OCC(F)F)ccn2)c2cc(F)c(C(=O)NC3(C)CCS(=O)(=O)CC3)cc21` [Example 121, 1-(4-(2,2-difluoroethoxy)pyridin-2-yl)-6-fluoro-3-isopropyl-N-(4-methyl-1,1-dioxidotetrahydro-2H-thiopyran-4-yl)-2-oxo-2,3-dihydro-1H-benzo[d]imidazole-5-carboxamide] as the molecule, how does the pIC50 read?
Answer: 7.04

Question: `CC(C)n1c(=O)n(-c2cc(OC(F)F)ncc2F)c2cc(F)c(C(=O)NC3(C)CS(=O)(=O)C3)cc21` [Example 123, 1-(2-(difluoromethoxy)-5-fluoropyridin-4-yl)-6-fluoro-3-isopropyl-N-(3-methyl-1,1-dioxidothietan-3-yl)-2-oxo-2,3-dihydro-1H-benzo[d]imidazole-5-carboxamide] was tested. Which pIC50 did it give?
Answer: 7.14

Question: `CC(C)n1c(=O)n(-c2cccc(OC(F)F)c2)c2ccc(C(=O)N[C@]3(C)CCS(=O)(=O)C3)c(F)c21` [Example 125, (R)-1-(3-(Difluoromethoxy)phenyl)-4-fluoro-3-isopropyl-N-(3-methyl-1,1-dioxidotetrahydrothiophen-3-yl)-2-oxo-2,3-dihydro-1H-benzo[d]imidazole-5-carboxamide] was tested. Which pIC50 did it give?
Answer: 6.69

Question: `CC(C)n1c(=O)n(-c2cccc(OC(F)F)c2)c2ccc(C(=O)NC3(C)CCS(=O)(=O)CC3)c(F)c21` [Example 126, 1-(3-(Difluoromethoxy)phenyl)-4-fluoro-3-isopropyl-N-(4-methyl-1,1-dioxidotetrahydro-2H-thiopyran-4-yl)-2-oxo-2,3-dihydro-1H-benzo[d]imidazole-5-carboxamide] was tested. Which pIC50 did it give?
Answer: 6.59

Same assay, conditions: membrane prep of Sf-9 cells expressing hDGAT2; 25 μM diolein, 5 μM 13C oleoyl-CoA; 13C18-triolein by LC/MS/MS; read-out: Human DGAT2 IC50

Question: How did the pIC50 turn out when `CC(C)n1c(=O)n(-c2cccc(OC(F)F)c2)c2cc(F)c(C(=O)NC3(C)CCS(=O)(=O)CC3)cc21` [Example 112, 1-(3-(Difluoromethoxy)phenyl)-6-fluoro-3-isopropyl-N-(4-methyl-1,1-dioxidotetrahydro-2H-thiopyran-4-yl)-2-oxo-2,3-dihydro-1H-benzo[d]imidazole-5-carboxamide] was run?
Answer: 7.13

Question: How did the pIC50 turn out when `CC(C)n1c(=O)n(-c2cc(OCC(F)F)ncc2F)c2cc(F)c(C(=O)NC3(C)CCS(=O)(=O)CC3)cc21` [Example 115, 1-(2-(2,2-difluoroethoxy)-5-fluoropyridin-4-yl)-6-fluoro-3-isopropyl-N-(4-methyl-1,1-dioxidotetrahydro-2H-thiopyran-4-yl)-2-oxo-2,3-dihydro-1H-benzo[d]imidazole-5-carboxamide] was run?
Answer: 8.39

Question: `CC(C)n1c(=O)n(-c2cc(OC(F)F)ncc2F)c2cc(F)c(C(=O)NC3(C)CCS(=O)(=O)CC3)cc21` [Example 122, 1-(2-(difluoromethoxy)-5-fluoropyridin-4-yl)-6-fluoro-3-isopropyl-N-(4-methyl-1,1-dioxidotetrahydro-2H-thiopyran-4-yl)-2-oxo-2,3-dihydro-1H-benzo[d]imidazole-5-carboxamide] was tested. Which pIC50 did it give?
Answer: 7.25

Question: `CC(C)n1c(=O)n(-c2cccc(OC(F)F)c2)c2ccc(C(=O)N[C@@]3(C)CCS(=O)(=O)C3)c(F)c21` [Example 124, (S)-1-(3-(Difluoromethoxy)phenyl)-4-fluoro-3-isopropyl-N-(3-methyl-1,1-dioxidotetrahydrothiophen-3-yl)-2-oxo-2,3-dihydro-1H-benzo[d]imidazole-5-carboxamide] was tested. Which pIC50 did it give?
Answer: 6.72

Question: How did the pIC50 turn out when `CC(C)n1c(=O)n(-c2cccc(OC(F)F)c2)c2cc(Cl)c(C(=O)NC3(C)CCS(=O)(=O)CC3)cc21` [Example 127] was run?
Answer: 6.95

Question: `CC(C)n1c(=O)n(-c2cccc(OC(F)F)c2)c2ccc(C(=O)NC3(C)CCS(=O)(=O)CC3)c(Cl)c21` [Example 128, 4-chloro-1-(3-(difluoromethoxy)phenyl)-3-isopropyl-N-(4-methyl-1,1-dioxidotetrahydro-2H-thiopyran-4-yl)-2-oxo-2,3-dihydro-1H-benzo[d]imidazole-5-carboxamide] was tested. Which pIC50 did it give?
Answer: 5.86

Question: With `CC(C)n1c(=O)n(-c2cccc(OC(F)F)c2)c2ccc(C(=O)NC3(C)CCS(=O)(=O)CC3)c(C#N)c21` [Example 129, 4-cyano-1-(3-(difluoromethoxy)phenyl)-3-isopropyl-N-(4-methyl-1,1-dioxidotetrahydro-2H-thiopyran-4-yl)-2-oxo-2,3-dihydro-1H-benzo[d]imidazole-5-carboxamide] as the molecule, how does the pIC50 read?
Answer: 6.61
